Consider 1 compound from publication PMC7854658, “Structural basis for ligand recognition of the neuropeptide Y Y2 receptor” (Nature Communications, 2021).

Holding throughout (assay): NPY-induced IP accumulation (IP-One), mutant
What all share (assay type): cell-based

One test has as its target T1, Y2R mutant D292^6.59N (Homo sapiens, UniProt P49146, D292N).
T1 construct: expressed in transfected cells; host or cells: HEK293
T1 sequence (P49146 1-381 D292N): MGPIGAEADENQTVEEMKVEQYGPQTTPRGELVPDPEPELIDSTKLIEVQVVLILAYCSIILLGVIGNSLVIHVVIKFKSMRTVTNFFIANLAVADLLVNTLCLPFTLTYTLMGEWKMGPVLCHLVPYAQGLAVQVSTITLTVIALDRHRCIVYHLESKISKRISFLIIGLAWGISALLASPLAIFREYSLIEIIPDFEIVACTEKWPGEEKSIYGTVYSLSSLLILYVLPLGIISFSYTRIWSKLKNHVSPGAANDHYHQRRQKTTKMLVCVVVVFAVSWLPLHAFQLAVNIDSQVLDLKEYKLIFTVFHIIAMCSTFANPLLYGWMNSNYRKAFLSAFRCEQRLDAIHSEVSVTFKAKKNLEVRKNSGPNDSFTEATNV
The method, then:
(§1) The plasmid hY2R_eYFP_pVitro2 encoding the WT Y2R and a fluorophore for investigating the receptor localization was used as template for the generation of receptor point mutations as previously described. Mutagenesis PCR was performed using the Phusion High-Fidelity Polymerase (Thermo Fisher Scientific, Waltham, MA, USA). […] The preparations of the plasmid DNA were performed using the Wizard plus Mini or Midi DNA purification kit (Promega, Madison, WI, USA).
(§2) To determine the contribution of residues to antagonist binding, IP-One accumulation assays (Cisbio, Codolet, France) were performed. HEK293 cells were seeded into six-well plates and transiently cotransfected with 3200 ng of receptor plasmid DNA and 800 ng of the chimeric G protein (Gα∆6qi4myr) to redirect the Gαi signaling pathway to the Gαq phospholipase C pathway. Transient transfection was carried out using Metafectene as transfection reagent according to the manufacturer’s protocol (Biontex, Munich, Germany) over night. The cells were then reseeded into white 384-well microplates (Greiner Bio-One, Kremsmünster, Austria) at a density of 15,000 cells per well and grown for additional 24 h.
(§3) All dilutions were performed in HBSS containing 20 mM LiCl (stimulation buffer) and DMSO with a final concentration of 0.01%.
(§4) To determine the amount of cellular IPs, the FRET acceptor (IP1-d2) and the FRET donor (anti-IP1-Cryptate) were reconstituted and diluted in lysis and detection buffer (1:20) as described in the manufacturer’s protocol. Three microliters of both solutions were added, and the cells were incubated on a tumbler for 60 min.

The target in the next test is T2, Y2R mutant L227^5.46A (Homo sapiens, UniProt P49146, L227A).
T2 construct: expressed in transfected cells; host or cells: HEK293
T2 sequence (P49146 1-381 L227A): T1 sequence (P49146 1-381 D292N) with L227A, N292D
The method, then:
as §1, §2, §3, §4

Another test concerns the target T3, Y2R mutant L284^6.51A (Homo sapiens, UniProt P49146, L284A).
T3 construct: expressed in transfected cells; host or cells: HEK293
T3 sequence (P49146 1-381 L284A): T1 sequence (P49146 1-381 D292N) with L284A, N292D
The method, then: as §1, §2, §3, §4

Another test concerns the target T4, Y2R mutant T111^2.65A (Homo sapiens, UniProt P49146, T111A).
T4 construct: expressed in transfected cells; host or cells: HEK293
T4 sequence (P49146 1-381 T111A): T1 sequence (P49146 1-381 D292N) with T111A, N292D
How it is done: as §1, §2, §3, §4

A further test concerns the target T5, Y2R mutant W116^ECL1A (Homo sapiens, UniProt P49146, W116A).
T5 construct: expressed in transfected cells; host or cells: HEK293
To be noted: 1 μM antagonist, source data Fig. 3. The method, then: as §1, §2, §3, §4

The next test addresses T6, Y2R mutant Y110^2.64A (Homo sapiens, UniProt P49146, Y110A).
T6 construct: expressed in transfected cells; host or cells: HEK293
To be noted: 1 μM antagonist, source data Fig. 3. How it is done: as §1, §2, §3, §4

[1] abbreviates: 1 μM antagonist, source data Fig. 3.
Setting [2] is: EC50(NPY + 1 μM antagonist)/EC50(NPY).
[3] abbreviates: EC50 ratio (WT)/EC50 ratio (mutant).

Substitutions are numbered along the chain they refer to. Several values for one entry are separate records, joined by “and”; a condition that tells them apart may be missing. Equal values may be shown once.

T6 sequence (P49146 whole entry Y110A): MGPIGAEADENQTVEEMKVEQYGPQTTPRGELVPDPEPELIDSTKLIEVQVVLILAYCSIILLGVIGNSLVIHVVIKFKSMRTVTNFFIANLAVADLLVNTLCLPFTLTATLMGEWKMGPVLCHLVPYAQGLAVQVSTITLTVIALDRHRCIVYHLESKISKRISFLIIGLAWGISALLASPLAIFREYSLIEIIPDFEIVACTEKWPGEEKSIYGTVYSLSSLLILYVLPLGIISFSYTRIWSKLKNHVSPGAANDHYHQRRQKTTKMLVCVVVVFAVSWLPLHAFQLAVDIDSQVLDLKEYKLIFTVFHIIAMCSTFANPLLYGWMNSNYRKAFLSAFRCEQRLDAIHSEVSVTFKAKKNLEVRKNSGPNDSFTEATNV
T5 sequence (P49146 whole entry W116A): as the sequence (P49146 whole entry Y110A) above, with A110Y, W116A counted along it

Take `N=C(N)NCCC[C@H](NC(=O)CC1(CC(=O)N2CCN(C3c4ccccc4NC(=O)c4ccccc43)CC2)CCCC1)C(=O)NCCn1c(=O)n(-c2ccccc2)n(-c2ccccc2)c1=O` (stereo partly shown) [BIIE0246]: the “Average EC50 ratio” value was determined as 66.7 on Y2R mutant D292^6.59N (setting [1]); 27.7 at Y2R mutant L227^5.46A (setting [1]); 108.6 on Y2R mutant L284^6.51A (setting [1]); 247.7 at Y2R mutant T111^2.65A (setting [1]); 38.2 at Y2R mutant W116^ECL1A; 47.6 at Y2R mutant Y110^2.64A. The “EC50 ratio (individual experiments)” value at Y2R mutant D292^6.59N (setting [1]) was 70.5 and 62.9; on Y2R mutant L227^5.46A (setting [1]), 31.4 and 24.0; on Y2R mutant L284^6.51A (setting [1]) it was 88.8 and 128.4; on Y2R mutant T111^2.65A (setting [1]), 265.4 and 230.1; at Y2R mutant W116^ECL1A, 21.7 and 54.7; on Y2R mutant Y110^2.64A, 25.1 and 70.1. Further, the EC50 ratio on Y2R mutant D292^6.59N (setting [2]) is 71 and 63; at Y2R mutant L227^5.46A (setting [2]), 31 and 24; on Y2R mutant L284^6.51A (setting [2]) it was 89 and 128; on Y2R mutant T111^2.65A (setting [2]) it was 265 and 230. Moreover, the “Ratio change (fold)” value on Y2R mutant L227^5.46A (setting [3]) is 5 fold and 7 fold; on Y2R mutant L284^6.51A (setting [3]), 1.8 fold and 1.2 fold; at Y2R mutant T111^2.65A (setting [3]), 0.6 fold and 0.7 fold.
